Key:
[1] = prevented HTRF measurement
[2] = biological target: m^6A reader domain of YTHDF2 (Homo sapiens, UniProt Q9Y5A9); settings: for Potency/affinity for YTHDF2 (in words): HTRF, comparison within Table 1
reader domain of YTHDF3 = reader domain of YTHDF3 (Homo sapiens, UniProt Q7Z739); settings: from residual signal at 1 mM, Table S1
reader domain of YTHDF1 = reader domain of YTHDF1 (Homo sapiens, UniProt Q9BYJ9); settings: from residual signal at 1 mM, Table S1
reader domain of YTHDF1, sequence (Q9BYJ9 361-559): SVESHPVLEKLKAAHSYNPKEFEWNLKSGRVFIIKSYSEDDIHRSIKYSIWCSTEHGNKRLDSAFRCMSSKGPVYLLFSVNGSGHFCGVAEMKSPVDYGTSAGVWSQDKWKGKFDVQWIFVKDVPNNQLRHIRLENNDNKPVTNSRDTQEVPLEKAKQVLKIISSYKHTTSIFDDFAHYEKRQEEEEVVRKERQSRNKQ

m^6A reader domain of YTHDF2, sequence (Q9Y5A9 383-579): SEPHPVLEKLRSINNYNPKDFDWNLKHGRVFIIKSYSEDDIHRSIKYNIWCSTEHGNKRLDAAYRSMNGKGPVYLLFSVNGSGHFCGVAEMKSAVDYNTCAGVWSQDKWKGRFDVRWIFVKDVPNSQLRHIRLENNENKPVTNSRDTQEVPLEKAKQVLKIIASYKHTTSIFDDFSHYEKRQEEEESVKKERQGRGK
reader domain of YTHDF3, sequence (Q7Z739 391-585): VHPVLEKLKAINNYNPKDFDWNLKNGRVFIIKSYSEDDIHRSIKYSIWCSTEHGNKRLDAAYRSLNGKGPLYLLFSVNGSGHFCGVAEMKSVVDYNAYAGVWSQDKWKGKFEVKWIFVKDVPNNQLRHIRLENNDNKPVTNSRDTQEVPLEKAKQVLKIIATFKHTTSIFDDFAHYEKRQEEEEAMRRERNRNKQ

SMILES	Potency/affinity for YTHDF2 (in words) [2]	other results
CNc1nc(NC)c2ncn(C)c2n1 [Compound 3]		Solubility (in words) [1]: poor solubility
O=c1cc(C2CC2)[nH]c(=O)[nH]1 [Compound 11, 6-cyclopropyluracil]	substantially higher	Ligand efficiency ([2]; calculated from YTHDF2 IC50): 0.47 kcal mol^–1 per non-hydrogen atom
CNc1ncnc2c1ncn2[C@@H]1O[C@H](CO)[C@@H](O)[C@H]1O [m^6A, N6-methyladenosine, reference compound]	not able to reduce the emitted signal even at high concentrations	
CNc1ncnc2c(C)[nH]nc12 [Compound 5]		Affinity for YTHDF3 (in words) (reader domain of YTHDF3): weak affinity; Affinity for YTHDF1 (in words) (reader domain of YTHDF1): weak affinity
COc1cc(=O)[nH]c(=O)[nH]1 [Compound 10, 6-methoxyuracil]	does not provide higher affinity	
CNc1ncnc2c(Br)[nH]nc12 [Compound 8]	nor any improvement in potency with respect to the methyl of 5	
CNc1ncnc2c(-c3ccccc3)[nH]nc12 [Compound 7]		Selectivity for YTHDF2 against YTHDF1 and YTHDF3 (in words) ([2]; from residual signal at 1 mM, Table S1): modest selectivity
Cc1[nH]nc2c(NC3CC3)ncnc12 [Compound 6]	lower than the one observed for its parent compound 5	
